{
  "source": "patent US20180250232A1",
  "about": "“PROCESS FOR PREPARING SPRAY DRIED SOLID DISPERSIONS OF (S)-N-(3-(6-ISOPROPOXYPYRIDIN-3-YL)-1H-INDAZOL-5-YL)-1-(2-(4-(4-(1-METHYL-1H-1,2,4-TRIAZOL-3-YL)PHENYL)-3,6-DIHYDROPYRIDIN-1(2H)-YL)-2-OXOETHYL)-3-(METHYLTHIO)PYRROLIDINE-3-CARBOXAMIDE FOR PHARMACEUTICAL PREPARATIONS” (Merck Sharp & Dohme Corp., priority 2015, published 2018)",
  "assay": "polymorph studies / competition slurry experiments",
  "format": "physicochemical",
  "protocol": "Preliminary polymorph screening for (S)—N-(3-(6-isopropoxypyridin-3-yl)-1H-indazol-5-yl)-1-(2-(4-(4-(1-methyl-1H-1,2,4-triazol-3-yl)phenyl)-3,6-dihydropyridin-1(2H)-yl)-2-oxoethyl)-3-(methylthio)pyrrolidine-3-carboxamide were conducted by solvent-mediated slurry experiments in 10 different solvents or solvent mixtures using the amorphous compound as the starting material.",
  "data": [
    {"smiles": "CS[C@@]1(C(=O)Nc2ccc3[nH]nc(-c4ccc(OC(C)C)nc4)c3c2)CCN(CC(=O)N2CC=C(c3ccc(-c4ncn(C)n4)cc3)CC2)C1", "note": "[hydrate form 2, (S)—N-(3-(6-isopropoxypyridin-3-yl)-1H-indazol-5-yl)-1-(2-(4-(4-(1-methyl-1H-1,2,4-triazol-3-yl)phenyl)-3,6-dihydropyridin-1(2H)-yl)-2-oxoethyl)-3-(methylthio)pyrrolidine-3-carboxamide crystalline free base hydrate form 2]", "values": [
      {"measurement": "more stable form in competition slurry experiments", "setting": "hydrate form 1 and 2 as seeds in H2O/methanol mixture (H2O activity of 0.5), room temperature and 4° C.", "value": "more stable form in both experiments"},
      {"measurement": "stability of crystalline form (polymorph studies)", "setting": "room temperature", "value": "most stable crystalline form at room temperature"}
    ]}
  ]
}
